Values quoted from earlier work in patent publication US20080166423A1, “Combination Medication for Treating the Effects of Stomach Acid Reduction Medication on Bone Integrity” (priority 2007, published 2008).

Details: per day

Q: With CC(=O)Nc1ccc(O)cc1 [Acetaminophen] as the compound, how does the “daily dosage with known liver toxicity” value read?
A: Its value is greater than 4000 mg.
